Assay results from patent publication US10392368B2, “Pyrazolo and triazolo bicyclic compounds as JAK kinase inhibitors” (THERAVANCE BIOPHARMA R&D IP, LLC, priority 2017, dated 2019).

How the values were obtained:
JAK1 = biological target: T1, JAK1 (Homo sapiens, UniProt P23458); experiment: Biochemical JAK1 kinase assay (LanthaScreen); settings: for Ki: read-out: JAK 1 (pKi) (converted)
T1 construct: GST; purchased Life Technologies
Method in brief: (§1)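 TR-FRET read-out: terbium anti-pSTAT1 (pTyr701) antibody, 2 nM, with 10 mM EDTA quench, emission ratio 520/495 nm. GST-JAK phosphorylates GFP-STAT1 peptide for 1 h at ambient temperature after 1 h compound pre-incubation. pIC50 from dose-response converted to pKi by Cheng-Prusoff.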

JAK2 = biological target: T2, JAK2 (Homo sapiens, UniProt O60674); experiment: Biochemical JAK2 kinase assay (LanthaScreen); settings: for Ki: read-out: JAK 2 (pKi) (converted)
T2 construct: GST; purchased Life Technologies
Method in brief: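 pKi values derive from pIC50 via Cheng-Prusoff, with IC50 from a 4-parameter fit of percent-inhibition TR-FRET data using Tb-anti-pSTAT1 (pTyr701) detection. Compound, GST-JAK2 and GFP-STAT1 substrate were pre-incubated 1 h, then ATP started a 1 h ambient reaction (HEPES pH 7.5, 10 mM MgCl2, 1% DMSO).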

Tyk2 = biological target: T3, Tyk2 (Homo sapiens, UniProt P29597); experiment: Biochemical Tyk2 kinase assay (LanthaScreen); settings: for Ki: read-out: Tyk 2 (pKi) (converted)
T3 construct: GST; purchased Life Technologies
Method in brief: as §1

[1] = test system: IL-2 stimulated pSTAT5 in Tall-1 T cells; experiment: Cellular JAK3 potency assay: inhibition of IL-2 stimulated pSTAT5 in Tall-1 T cells; format: cell-based, human; settings: for Tall-1 (pIC50): IL-2 stimulated pSTAT5, Tall-1 T cells; for IC50: Homo sapiens, TALL-1, IL-2 stimulated pSTAT5, Tall-1 T cells, read-out: Tall-1 (pIC50) (converted)
Method in brief: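 Tall-1 human T cells were preincubated with compound for 1 h at 37° C, then stimulated with IL-2 (300 ng/ml final) for 30 min. STAT5 phosphorylation in lysates was read by AlphaLisa bead emission, and IC50 from inhibition curves is given as pIC50 (mean±SD).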

JAK3 = biological target: T4, JAK3 (Homo sapiens, UniProt P52333); experiment: Biochemical JAK3 kinase assay (LanthaScreen); design: GST; purchased Life Technologies; settings: for JAK3 (pKi)-JAK1 (pKi): selectivity JAK3 over JAK1, difference of pKi; for Ki: read-out: JAK 3 (pKi) (converted)
T4 sequence (P52333 1-1124): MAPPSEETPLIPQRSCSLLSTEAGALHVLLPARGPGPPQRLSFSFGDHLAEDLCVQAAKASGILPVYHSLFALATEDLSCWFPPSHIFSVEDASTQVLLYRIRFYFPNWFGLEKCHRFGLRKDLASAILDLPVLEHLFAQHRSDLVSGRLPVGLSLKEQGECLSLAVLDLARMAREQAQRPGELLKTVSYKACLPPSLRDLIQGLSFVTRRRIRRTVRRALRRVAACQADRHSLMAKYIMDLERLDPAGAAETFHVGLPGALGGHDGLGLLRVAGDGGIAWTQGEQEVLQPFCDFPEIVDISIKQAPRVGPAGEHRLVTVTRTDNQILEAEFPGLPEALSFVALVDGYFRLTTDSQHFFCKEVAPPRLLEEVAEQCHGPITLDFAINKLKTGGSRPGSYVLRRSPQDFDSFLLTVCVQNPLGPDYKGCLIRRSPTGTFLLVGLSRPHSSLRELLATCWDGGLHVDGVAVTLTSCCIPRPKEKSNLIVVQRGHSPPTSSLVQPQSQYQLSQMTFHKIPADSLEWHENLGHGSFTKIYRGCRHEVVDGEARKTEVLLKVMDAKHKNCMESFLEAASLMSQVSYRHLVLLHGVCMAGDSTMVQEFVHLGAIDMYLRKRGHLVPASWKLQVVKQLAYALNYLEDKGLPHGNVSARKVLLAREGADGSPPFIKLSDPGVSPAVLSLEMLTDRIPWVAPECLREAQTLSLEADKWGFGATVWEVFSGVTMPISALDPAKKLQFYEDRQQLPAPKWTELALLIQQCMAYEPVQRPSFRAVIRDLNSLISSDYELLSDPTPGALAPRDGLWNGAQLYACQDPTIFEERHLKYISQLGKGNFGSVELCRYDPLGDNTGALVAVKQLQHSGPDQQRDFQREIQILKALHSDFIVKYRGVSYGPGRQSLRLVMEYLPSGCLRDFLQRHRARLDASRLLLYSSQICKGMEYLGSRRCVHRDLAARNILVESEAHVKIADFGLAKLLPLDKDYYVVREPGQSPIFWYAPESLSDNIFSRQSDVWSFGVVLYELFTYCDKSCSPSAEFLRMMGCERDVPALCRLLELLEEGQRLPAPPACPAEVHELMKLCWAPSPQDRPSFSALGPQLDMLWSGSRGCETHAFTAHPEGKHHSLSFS
Method in brief: as §1

T1 sequence (P23458 whole entry): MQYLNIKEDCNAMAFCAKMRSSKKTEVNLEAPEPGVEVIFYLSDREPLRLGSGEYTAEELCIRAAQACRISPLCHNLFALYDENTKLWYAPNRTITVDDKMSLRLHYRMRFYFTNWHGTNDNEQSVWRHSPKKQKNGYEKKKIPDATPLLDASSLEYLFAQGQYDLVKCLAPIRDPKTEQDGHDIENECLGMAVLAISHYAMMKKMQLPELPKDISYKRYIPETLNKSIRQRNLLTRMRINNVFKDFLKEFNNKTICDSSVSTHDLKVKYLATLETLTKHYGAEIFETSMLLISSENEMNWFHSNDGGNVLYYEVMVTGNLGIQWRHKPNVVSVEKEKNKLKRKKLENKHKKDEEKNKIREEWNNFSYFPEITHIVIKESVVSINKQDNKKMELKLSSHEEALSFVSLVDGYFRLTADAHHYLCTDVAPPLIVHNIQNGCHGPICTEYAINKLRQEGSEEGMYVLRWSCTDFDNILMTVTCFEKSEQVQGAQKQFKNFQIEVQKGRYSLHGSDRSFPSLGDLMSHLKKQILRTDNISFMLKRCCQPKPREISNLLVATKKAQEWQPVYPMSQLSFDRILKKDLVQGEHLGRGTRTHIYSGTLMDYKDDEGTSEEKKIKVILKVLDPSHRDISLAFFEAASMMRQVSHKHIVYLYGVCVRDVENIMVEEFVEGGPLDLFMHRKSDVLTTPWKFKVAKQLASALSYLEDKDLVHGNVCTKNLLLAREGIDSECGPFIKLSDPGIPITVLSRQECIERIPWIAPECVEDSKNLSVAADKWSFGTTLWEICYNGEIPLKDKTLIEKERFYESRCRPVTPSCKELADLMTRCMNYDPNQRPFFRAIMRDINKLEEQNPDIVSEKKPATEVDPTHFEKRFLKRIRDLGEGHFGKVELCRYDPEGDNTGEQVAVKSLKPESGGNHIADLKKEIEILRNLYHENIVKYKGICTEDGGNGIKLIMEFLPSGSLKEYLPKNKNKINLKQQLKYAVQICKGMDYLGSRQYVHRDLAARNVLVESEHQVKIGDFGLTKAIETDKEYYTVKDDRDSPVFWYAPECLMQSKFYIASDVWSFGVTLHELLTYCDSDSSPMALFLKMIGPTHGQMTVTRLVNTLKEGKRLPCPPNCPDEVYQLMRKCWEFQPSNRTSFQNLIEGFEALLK
T3 sequence (P29597 whole entry): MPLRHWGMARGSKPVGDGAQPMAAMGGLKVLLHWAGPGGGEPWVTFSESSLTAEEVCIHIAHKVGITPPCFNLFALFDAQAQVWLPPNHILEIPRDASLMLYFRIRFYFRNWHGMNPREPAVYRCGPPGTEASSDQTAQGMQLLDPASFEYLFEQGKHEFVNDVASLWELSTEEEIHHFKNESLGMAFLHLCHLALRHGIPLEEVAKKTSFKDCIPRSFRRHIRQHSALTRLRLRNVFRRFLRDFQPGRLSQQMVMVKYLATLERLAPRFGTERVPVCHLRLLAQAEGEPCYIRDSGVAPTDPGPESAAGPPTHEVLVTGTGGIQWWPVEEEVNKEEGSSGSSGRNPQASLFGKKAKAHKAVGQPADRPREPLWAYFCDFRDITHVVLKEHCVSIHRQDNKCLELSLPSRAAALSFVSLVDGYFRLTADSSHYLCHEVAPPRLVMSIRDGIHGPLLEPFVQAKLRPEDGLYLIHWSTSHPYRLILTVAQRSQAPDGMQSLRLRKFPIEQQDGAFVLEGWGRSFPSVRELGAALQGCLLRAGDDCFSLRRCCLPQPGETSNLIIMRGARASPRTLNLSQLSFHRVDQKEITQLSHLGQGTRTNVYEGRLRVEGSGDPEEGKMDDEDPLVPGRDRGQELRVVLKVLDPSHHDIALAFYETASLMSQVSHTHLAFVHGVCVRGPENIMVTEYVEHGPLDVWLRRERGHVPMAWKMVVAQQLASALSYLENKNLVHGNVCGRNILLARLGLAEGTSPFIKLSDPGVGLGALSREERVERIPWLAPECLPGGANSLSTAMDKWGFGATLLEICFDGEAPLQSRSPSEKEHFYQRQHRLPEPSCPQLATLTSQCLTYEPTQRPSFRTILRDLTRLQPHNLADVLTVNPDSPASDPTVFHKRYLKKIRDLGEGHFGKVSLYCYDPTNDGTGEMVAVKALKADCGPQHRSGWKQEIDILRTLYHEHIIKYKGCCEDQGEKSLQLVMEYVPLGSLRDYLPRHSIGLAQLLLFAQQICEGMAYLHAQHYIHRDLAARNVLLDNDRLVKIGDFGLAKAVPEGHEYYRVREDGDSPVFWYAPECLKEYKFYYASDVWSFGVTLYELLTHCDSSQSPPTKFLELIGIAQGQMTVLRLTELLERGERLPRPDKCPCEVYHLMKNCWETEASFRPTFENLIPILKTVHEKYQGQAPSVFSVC
T2 sequence (O60674 whole entry): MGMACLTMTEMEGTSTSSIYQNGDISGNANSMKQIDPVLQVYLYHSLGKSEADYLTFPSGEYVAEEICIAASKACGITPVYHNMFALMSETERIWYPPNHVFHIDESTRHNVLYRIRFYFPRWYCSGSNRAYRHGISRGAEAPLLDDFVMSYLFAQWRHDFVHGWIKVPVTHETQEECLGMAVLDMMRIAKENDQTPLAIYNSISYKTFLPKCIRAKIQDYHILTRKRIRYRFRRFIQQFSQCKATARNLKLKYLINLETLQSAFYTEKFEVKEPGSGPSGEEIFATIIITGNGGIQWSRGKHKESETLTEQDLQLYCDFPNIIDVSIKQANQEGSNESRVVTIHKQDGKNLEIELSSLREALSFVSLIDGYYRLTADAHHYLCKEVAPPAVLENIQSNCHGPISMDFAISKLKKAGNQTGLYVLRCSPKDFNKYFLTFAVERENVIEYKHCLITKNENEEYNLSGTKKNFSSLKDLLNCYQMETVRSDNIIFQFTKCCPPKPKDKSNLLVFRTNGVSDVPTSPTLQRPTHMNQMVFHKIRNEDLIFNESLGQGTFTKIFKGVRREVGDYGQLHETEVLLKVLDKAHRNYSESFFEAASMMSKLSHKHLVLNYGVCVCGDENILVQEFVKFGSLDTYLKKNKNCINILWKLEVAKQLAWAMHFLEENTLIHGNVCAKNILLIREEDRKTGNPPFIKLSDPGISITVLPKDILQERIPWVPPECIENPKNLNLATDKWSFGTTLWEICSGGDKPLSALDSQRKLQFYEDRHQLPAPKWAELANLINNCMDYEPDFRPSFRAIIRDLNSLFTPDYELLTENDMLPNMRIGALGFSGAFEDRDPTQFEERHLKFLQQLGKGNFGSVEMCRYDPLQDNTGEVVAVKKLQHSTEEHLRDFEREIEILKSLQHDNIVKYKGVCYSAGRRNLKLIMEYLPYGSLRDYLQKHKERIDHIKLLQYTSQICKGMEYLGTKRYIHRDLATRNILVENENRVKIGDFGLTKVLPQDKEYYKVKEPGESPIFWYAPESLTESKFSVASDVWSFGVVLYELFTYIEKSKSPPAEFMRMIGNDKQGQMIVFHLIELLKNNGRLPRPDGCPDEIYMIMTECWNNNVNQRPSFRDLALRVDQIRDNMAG

SMILES | JAK 1 (pKi) (JAK1) | JAK 2 (pKi) (JAK2) | Tyk 2 (pKi) (Tyk2) | Tall-1 (pIC50) [1] | JAK 3 (pKi) (JAK3) | JAK3 (pKi)-JAK1 (pKi) (JAK3) | Ki (JAK1) [nM] | Ki (JAK2) [nM] | Ki (Tyk2) [nM] | IC50 [1] [nM] | Ki (JAK3) [nM]
CN(C)C/C=C/C(=O)N1CC(Sc2cc(-c3ccc(O)cc3)cc3[nH]ncc23)C1 [Compound 12-51] | D (a pKi value between 7 and 8 (Ki between 100 nM and 10 nM)) | D (a pKi value between 7 and 8 (Ki between 100 nM and 10 nM)) | E (a pKi value of 7 or below (Ki of 100 nM or above)) | B (a pIC50 value between 6.7 (included) and 7.5 (IC50 between 200 nM and 32 nM)) | A (a pKi value≥10 (Ki≤0.1 nM)) | A (a value of 3 or above) | – | – | – | – | –
CN(C)C/C=C/C(=O)N1CC2(CCC2Oc2cc(-c3ccc(O)cc3)cc3[nH]ncc23)C1 (stereo not drawn) [Compound 12-53] | – | – | – | – | – | B (a value of 2.3 to 3) | > 100 | 1 to 10 | > 100 | < 31.6 | 0.1 to 1
C=CC(=O)N1CC2(CCC2Oc2cc(-c3ccc(O)cc3)cc3[nH]ncc23)C1 (stereo not drawn) [Compound 12-54] | – | – | – | – | – | B (a value of 2.3 to 3) | > 100 | 10 to 100 | > 100 | < 31.6 | 0.1 to 1
C=CC(=O)N1CCC[C@@H](C(=O)Nc2cc(-c3ccc(O)cc3)cc3[nH]ncc23)[C@H]1C [Compound 12-57] | – | – | – | – | – | A (a value of 3 or above) | > 100 | 10 to 100 | > 100 | 31.6 to 200 | 0.1 to 1
C=CC(=O)N1CCC(F)(C(=O)Nc2cc(-c3ccc(O)cc3)cc3[nH]ncc23)CC1 [Compound 12-58] | – | – | – | – | – | A (a value of 3 or above) | > 100 | 10 to 100 | > 100 | 31.6 to 200 | < 0.1
C=CC(=O)N1C[C@H](C(=O)Nc2cc(-c3ccc(O)cc3)cc3[nH]ncc23)OC[C@@H]1C [Compound 12-60] | – | – | – | – | – | A (a value of 3 or above) | > 100 | > 100 | > 100 | 31.6 to 200 | 0.1 to 1
C=CC(=O)N1C[C@@H](C)O[C@@H](C(=O)Nc2cc(-c3ccc(O)cc3)cc3[nH]ncc23)C1 [Compound 12-61] | – | – | – | – | – | A (a value of 3 or above) | > 100 | > 100 | > 100 | 31.6 to 200 | < 0.1
C=CC(=O)N1CCOC[C@H]1C(=O)Nc1cc(-c2ccc(O)cc2)cc2[nH]ncc12 [Compound 12-63] | – | – | – | – | – | A (a value of 3 or above) | > 100 | > 100 | > 100 | 31.6 to 200 | 0.1 to 1
C=CC(=O)N1CCSC[C@H]1C(=O)Nc1cc(-c2ccc(O)cc2)cc2[nH]ncc12 [Compound 12-64] | – | – | – | – | – | A (a value of 3 or above) | > 100 | > 100 | > 100 | < 31.6 | < 0.1
CN(C)C/C=C/C(=O)N1CCSC[C@@H]1C(=O)Nc1cc(-c2ccc(O)cc2)cc2[nH]ncc12 [Compound 12-65] | – | – | – | – | – | A (a value of 3 or above) | > 100 | > 100 | > 100 | 200 to 1000 | 0.1 to 1
C=CC(=O)N1CCSCC1C(=O)Nc1cc(-c2ccc(O)cc2)cc2[nH]ncc12 (stereo not drawn) [Compound 12-66] | – | – | – | – | – | A (a value of 3 or above) | > 100 | > 100 | > 100 | 31.6 to 200 | 0.1 to 1
CN(C)C/C=C/C(=O)N1CC(F)(C(=O)Nc2cc(-c3ccc(O)cc3)cc3[nH]ncc23)C1 [Compound 12-67] | – | – | – | – | – | A (a value of 3 or above) | > 100 | > 100 | > 100 | 31.6 to 200 | 0.1 to 1
C=CC(=O)N1CC(C)(C(=O)Nc2cc(-c3ccc(O)cc3)cc3[nH]ncc23)C1 [Compound 12-68] | – | – | – | – | – | A (a value of 3 or above) | > 100 | > 100 | > 100 | 200 to 1000 | 0.1 to 1
C=CC(=O)N1CC(CSc2cc(-c3ccc(O)c(Cl)c3)nc3[nH]ncc23)C1 [Compound 13-1] | E (a pKi value of 7 or below (Ki of 100 nM or above)) | E (a pKi value of 7 or below (Ki of 100 nM or above)) | E (a pKi value of 7 or below (Ki of 100 nM or above)) | B (a pIC50 value between 6.7 (included) and 7.5 (IC50 between 200 nM and 32 nM)) | B (a pKi value between 9 and 10 (Ki between 1 nM and 0.1 nM)) | A (a value of 3 or above) | – | – | – | – | –
C=CC(=O)N1CCO[C@@H](C(=O)Nc2cc(-c3ccc(O)c(Cl)c3)cc3[nH]ncc23)C1 [Compound 13-2] | E (a pKi value of 7 or below (Ki of 100 nM or above)) | E (a pKi value of 7 or below (Ki of 100 nM or above)) | E (a pKi value of 7 or below (Ki of 100 nM or above)) | A (a pIC50 value≥7.5 (IC50≤32 nM)) | B (a pKi value between 9 and 10 (Ki between 1 nM and 0.1 nM)) | A (a value of 3 or above) | – | – | – | – | –
CN(C)C/C=C/C(=O)N1CC(CSc2cc(-c3ccc(O)cc3)cc3[nH]ncc23)C1 [Compound 13-4] | E (a pKi value of 7 or below (Ki of 100 nM or above)) | D (a pKi value between 7 and 8 (Ki between 100 nM and 10 nM)) | E (a pKi value of 7 or below (Ki of 100 nM or above)) | B (a pIC50 value between 6.7 (included) and 7.5 (IC50 between 200 nM and 32 nM)) | A (a pKi value≥10 (Ki≤0.1 nM)) | A (a value of 3 or above) | – | – | – | – | –
CN(C)C/C=C/C(=O)N1CC(CSc2cc(-c3ccc(O)c(F)c3)cc3[nH]ncc23)C1 [Compound 13-5] | E (a pKi value of 7 or below (Ki of 100 nM or above)) | D (a pKi value between 7 and 8 (Ki between 100 nM and 10 nM)) | E (a pKi value of 7 or below (Ki of 100 nM or above)) | B (a pIC50 value between 6.7 (included) and 7.5 (IC50 between 200 nM and 32 nM)) | A (a pKi value≥10 (Ki≤0.1 nM)) | A (a value of 3 or above) | – | – | – | – | –
CN(C)C/C=C/C(=O)N1CC(CSc2cc(-c3ccc(O)c(Cl)c3)cc3[nH]ncc23)C1 [Compound 13-6] | E (a pKi value of 7 or below (Ki of 100 nM or above)) | E (a pKi value of 7 or below (Ki of 100 nM or above)) | E (a pKi value of 7 or below (Ki of 100 nM or above)) | A (a pIC50 value≥7.5 (IC50≤32 nM)) | A (a pKi value≥10 (Ki≤0.1 nM)) | A (a value of 3 or above) | – | – | – | – | –
C=CC(=O)N1CC(CSc2cc(-c3ccc(O)c(F)c3)cc3[nH]ncc23)C1 [Compound 13-7] | E (a pKi value of 7 or below (Ki of 100 nM or above)) | D (a pKi value between 7 and 8 (Ki between 100 nM and 10 nM)) | E (a pKi value of 7 or below (Ki of 100 nM or above)) | B (a pIC50 value between 6.7 (included) and 7.5 (IC50 between 200 nM and 32 nM)) | A (a pKi value≥10 (Ki≤0.1 nM)) | A (a value of 3 or above) | – | – | – | – | –
